Three compounds from US20240294595A1, “GLYCOPEPTIDES AND USES THEREOF” (Arizona Board of Regents on Behalf of the University of …, priority 2013, published 2024) can be followed below.

“Also recorded” adds a separate entry of the source.

The subject of series [1] is traumatic brain injury (TBI). Briefly: mouse model of diffuse TBI (midline fluid percussion injury). Format: in vivo. As for the experimental part:
Lead compound 2LS80Mel was evaluated for its neuroprotective potential in vivo utilizing a mouse model of traumatic brain injury (TBI). Mice were pretreated with either a single dose of 2LS80Mel (10 mg/kg i.p.) or sterile saline 30 min prior to being subjected to a midline fluid percussion injury. The mice were then evaluated for sleep-wake behavior (FIGS. 8A-C), motor skills and cognition, (FIGS. 8D-F), the presence of inflammatory markers, (FIGS. 8G-L), and microglial morphology (FIGS. 8M-O).

The target in the next series is T1, VPAC2 (Homo sapiens, UniProt P41587).
T1 sequence (P41587 24-438): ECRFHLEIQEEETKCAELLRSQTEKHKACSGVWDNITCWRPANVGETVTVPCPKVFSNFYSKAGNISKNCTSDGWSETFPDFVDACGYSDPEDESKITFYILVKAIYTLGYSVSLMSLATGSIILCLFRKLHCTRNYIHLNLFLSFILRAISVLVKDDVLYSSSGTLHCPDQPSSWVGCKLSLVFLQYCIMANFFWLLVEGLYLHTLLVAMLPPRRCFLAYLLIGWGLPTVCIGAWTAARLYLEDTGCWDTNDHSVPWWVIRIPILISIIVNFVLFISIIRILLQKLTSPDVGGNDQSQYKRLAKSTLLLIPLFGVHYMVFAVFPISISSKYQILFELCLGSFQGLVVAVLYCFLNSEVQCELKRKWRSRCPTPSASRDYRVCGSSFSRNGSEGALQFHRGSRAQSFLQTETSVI
Briefly: VPAC2 agonist data (Table 2). Format: cell-based.

The target in a further series is T2, PAC1 (Homo sapiens, UniProt P41586).
T2 sequence (P41586 21-468): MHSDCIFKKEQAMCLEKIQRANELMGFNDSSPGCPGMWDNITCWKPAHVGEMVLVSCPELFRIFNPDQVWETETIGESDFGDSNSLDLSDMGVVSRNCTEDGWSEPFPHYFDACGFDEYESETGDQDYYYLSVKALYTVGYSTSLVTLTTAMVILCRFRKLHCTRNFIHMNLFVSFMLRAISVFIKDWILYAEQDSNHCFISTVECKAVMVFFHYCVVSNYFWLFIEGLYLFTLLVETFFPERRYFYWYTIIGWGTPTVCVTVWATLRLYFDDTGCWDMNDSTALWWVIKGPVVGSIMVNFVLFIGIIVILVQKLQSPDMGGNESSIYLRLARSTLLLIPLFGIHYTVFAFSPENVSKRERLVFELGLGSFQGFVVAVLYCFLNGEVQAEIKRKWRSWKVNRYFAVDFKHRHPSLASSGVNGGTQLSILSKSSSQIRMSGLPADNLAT
Briefly: PAC1 agonist data (Table 2). More on the design: host or cells: CHO (clonal line PAC1-CHO). Format: cell-based. As for the experimental part:
A custom DNA clone of the human PAC1 gene with 3 hemagglutinin (HA) tags inserted 3′ to the signal peptide sequence (to avoid proteolytic loss) was obtained from Genecopoeia (Rockville, MD). The construct was electroporated into Chinese Hamster Ovary (CHO) cells, and selected for with 500 μg/mL of G418. The resulting population was screened for high expressing clones, and one such clone selected for further analysis. […] This cell line was used for all molecular pharmacology experiments. The cells were maintained in DMEM/F12 with 10% heat-inactivated FBS, 1× penicillin/streptomycin, and 500 μg/mL G418, at 37° C. and 5% CO2.
All molecular pharmacology experiments were carried out using a FLIPR Tetra from Molecular Devices (Sunnyvale, CA), set to image calcium flux using the manufacturer's recommended settings and protocols. The day before an experiment, the PAC1-CHO cells were split into 384 well black walled, clear bottom microplates, 10,000 cells per well. The cells were recovered overnight in growth medium (as above). The next day, the growth medium was replaced with Calcium 6 dye (Molecular Devices) using the manufacturer recommended buffer with 2.5 mM probenecid. The cells were incubated for 2 hours in the culture incubator, and removed during the last 15 minutes to allow equilibration to room temperature. Compound as indicated below was added to the cells using a 384 tip block, with real time monitoring before, during, and 15 minutes after compound addition. The resulting calcium flux was recorded, and the maximum-minimum response over the entire observation time calculated and reported as the mean±SEM (4 wells per point).
For agonist mode experiments, compound was added in an 11 point concentration curve, with a vehicle control (buffer). […] The response was analyzed using a 3 variable non-linear curve fit, and the EC50 (nM) and EMax (%) calculated and reported (Prism, GraphPad, La Jolla, CA).

In a further series the target is T3, VPAC1 (Homo sapiens, UniProt P32241).
T3 sequence (P32241 31-457): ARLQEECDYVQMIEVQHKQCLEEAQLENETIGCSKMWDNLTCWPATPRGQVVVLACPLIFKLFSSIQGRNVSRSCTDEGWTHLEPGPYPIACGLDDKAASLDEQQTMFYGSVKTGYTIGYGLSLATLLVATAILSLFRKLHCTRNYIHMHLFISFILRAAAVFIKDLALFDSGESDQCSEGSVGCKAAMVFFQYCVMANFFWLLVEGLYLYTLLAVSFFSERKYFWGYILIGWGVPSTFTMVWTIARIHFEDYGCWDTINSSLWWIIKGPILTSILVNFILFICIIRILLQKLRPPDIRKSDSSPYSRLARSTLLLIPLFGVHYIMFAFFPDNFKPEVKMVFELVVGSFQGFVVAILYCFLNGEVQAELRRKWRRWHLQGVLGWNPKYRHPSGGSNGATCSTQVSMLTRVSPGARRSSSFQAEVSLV
Nature of the series: VPAC1 agonist data (Table 2). The series is classed as cell-based.

Series [2] can be described thus: stability in mouse serum at 37° C. (FI-MSn). Format: in vitro ADME. To be noted: for degradation in mouse serum: mouse serum at 37° C. An excerpt:
Chemical stability of the glycopeptides in vivo plays an important role in the deliverability of the drugs to the site(s) of action within the brain. It is also important to know what the chemical or metabolic instabilities are in order to inform the drug design process. […] Data were fitted using a single exponential decay model (R^2>0.71, in all cases).
The overall process was as follows: Flow-injection tandem mass spectrometry (FI-MS^n) was used to observe the degradation of the peptides and glycopeptides with a Thermo LCQ with electrospray ionization (ESI). The technique involved injection of a sample bolus of material in mouse serum via a six port valve with fluid flow delivered via a syringe pump, and subsequent electrospray ionization (ESI) followed by mass spectral analysis. Samples were diluted to a concentration of ˜5 μM of each PACAP analogue, and were incubated at 37° C. for times varying from 1 to 60 minutes. After samples had been incubated for the prescribed amount of time they were prepared for mass spectrometry analysis by withdrawing 10 microliters of solution and spiking with 1 microliter of a 10 μM solution of peptide internal standard (angiotensin II) in 50% acetic acid and subjecting them to a standard C18 zip tip desalting. These solutions, once eluted from the zip tip were diluted to 100 μL in 50:50 acetonitrile/water with 0.1% formic acid. Tandem mass spectrometry analysis (MS^3) was conducted to yield specific, quantitative signals proportional to the amount of PACAP analogue at each time point. This technique was also used with microdiasylate samples from a mouse after i.p. administration of PACAP1-27-S-G.

[3] abbreviates: 10 mg/kg i.p. 30 min prior to TBI.

For `CC[C@H](C)[C@H](NC(=O)CNC(=O)[C@H](CC(=O)O)NC(=O)[C@H](CO)NC(=O)[C@@H](N)Cc1c[nH]cn1)C(=O)N[C@@H](Cc1ccccc1)C(=O)N[C@H](C(=O)N[C@@H](CC(=O)O)C(=O)N[C@@H](CO)C(=O)N[C@@H](Cc1ccc(O)cc1)C(=O)N[C@@H](CO)C(=O)N[C@@H](CCCNC(=N)N)C(=O)N[C@@H](Cc1ccc(O)cc1)C(=O)N[C@@H](CCCNC(=N)N)C(=O)N[C@@H](CCCCN)C(=O)N[C@@H](CCC(N)=O)C(=O)N[C@@H](CC(C)C)C(=O)N[C@@H](C)C(=O)N[C@H](C(=O)N[C@@H](CCCCN)C(=O)N[C@@H](CCCCN)C(=O)N[C@@H](Cc1ccc(O)cc1)C(=O)N[C@@H](CC(C)C)C(=O)N[C@@H](C)C(=O)N[C@@H](C)C(=O)N[C@H](C(=O)N[C@@H](CC(C)C)C(=O)N[C@@H](CO[C@@H]1O[C@H](CO[C@H]2O[C@H](CO)[C@H](O)[C@H](O)[C@H]2O)[C@@H](O)[C@H](O)[C@H]1O)C(N)=O)C(C)C)C(C)C)[C@@H](C)O` [Compound 2LS80Mel], in series [1] (setting [3]), the “cumulative minutes slept in the first 6 h post-injury” value is “slept comparable minutes to uninjured sham animals” and the “sleep in the first dark period” value is reported as “prevented this injury-induced increase in sleep”. Moreover, in series [1] (10 mg/kg i.p. prior to TBI), the “CD11b+Ly6Chigh and CD11b+CD115+Ly6Chigh monocyte populations” value was “not seen; also recorded: prevented increases in peripheral monocyte populations”; the “sensorimotor deficits, modified NSS” value is on record as “prevented”. Also, in series [1] (10 mg/kg i.p. prior to TBI, 2, 5, 7 DPI), the “Rotarod latency to fall” value was “comparable to uninjured shams at all time points post-injury”. Besides, in series [1] (2LS80Mel-treated vs saline-treated), the “levels of select inflammatory cytokines” value is “no significant differences”. The microglial morphology entry in series [1] (2LS80Mel-treated vs saline-treated, 15 DPI) is given as “no significant differences”. Further, in series [1] (overall, FIG. 8), the “behavioral, neurological, and motor skill deficits” value is “attenuated behavioral, neurological, and motor skill deficits”. Besides, at VPAC2, the EC50 (as a rule, the concentration that produces a half-maximal response) is 9.4 nM and the Emax (usually the greatest response seen or fitted, relative to the assay's reference) stood at 86%. For the same compound, on PAC1, the EC50 stood at 0.57 nM and the Emax came to 99%. Also, on VPAC1, the EC50 is 0.55 nM and the Emax stood at 102%.

Take `CC[C@H](C)[C@H](NC(=O)CNC(=O)[C@H](CC(=O)O)NC(=O)[C@H](CO)NC(=O)[C@@H](N)Cc1cnc[nH]1)C(=O)N[C@@H](Cc1ccccc1)C(=O)N[C@H](C(=O)N[C@@H](CC(=O)O)C(=O)N[C@@H](CO)C(=O)N[C@@H](Cc1ccc(O)cc1)C(=O)N[C@@H](CO)C(=O)N[C@@H](CCCNC(=N)N)C(=O)N[C@@H](Cc1ccc(O)cc1)C(=O)N[C@@H](CCCNC(=N)N)C(=O)N[C@@H](CCCCN)C(=O)N[C@@H](CCC(N)=O)C(=O)N[C@@H](CCSC)C(=O)N[C@@H](C)C(=O)N[C@H](C(=O)N[C@@H](CCCCN)C(=O)N[C@@H](CCCCN)C(=O)N[C@@H](Cc1ccc(O)cc1)C(=O)N[C@@H](CC(C)C)C(=O)N[C@@H](C)C(=O)N[C@@H](C)C(=O)N[C@H](C(=O)N[C@@H](CC(C)C)C(N)=O)C(C)C)C(C)C)[C@@H](C)O` [PACAP1-27, PACAP-27, reference compound]: the “degradation in mouse serum” value in series [2] was “degraded over 30 min”.

As to `CC[C@H](C)[C@H](NC(=O)CNC(=O)[C@H](CC(=O)O)NC(=O)[C@H](CO)NC(=O)[C@@H](N)Cc1c[nH]cn1)C(=O)N[C@@H](Cc1ccccc1)C(=O)N[C@H](C(=O)N[C@@H](CC(=O)O)C(=O)N[C@@H](CO)C(=O)N[C@@H](Cc1ccc(O)cc1)C(=O)N[C@@H](CO)C(=O)N[C@@H](CCCNC(=N)N)C(=O)N[C@@H](Cc1ccc(O)cc1)C(=O)N[C@@H](CCCNC(=N)N)C(=O)N[C@@H](CCCCN)C(=O)N[C@@H](CCC(N)=O)C(=O)N[C@@H](CCSC)C(=O)N[C@@H](C)C(=O)N[C@H](C(=O)N[C@@H](CCCCN)C(=O)N[C@@H](CCCCN)C(=O)N[C@@H](Cc1ccc(O)cc1)C(=O)N[C@@H](CC(C)C)C(=O)N[C@@H](C)C(=O)N[C@@H](C)C(=O)N[C@H](C(=O)N[C@@H](CC(C)C)C(=O)N[C@@H](CO[C@@H]1O[C@H](CO)[C@@H](O)[C@H](O)[C@H]1O)C(N)=O)C(C)C)C(C)C)[C@@H](C)O` [PACAP1-27-S-G], the “mouse serum t1/2 in vitro” value in series [2] (compared to native / non-glycosylated peptide) is reported as “significant increase”. Moreover, the “degradation in mouse serum” value in series [2] is “degraded over 30 min”.
